Reference: US8609669B2, “Potassium channel modulators” (AbbVie Inc., priority 2010, dated 2013)

Experiments:
[1] = tested on: Capsaicin-induced secondary mechanical hyperalgesia / tactile allodynia; assay: Capsaicin-induced secondary mechanical hypersensitivity; type: in vivo, Sprague-Dawley rats; details: rat, about 30 mg/kg i.p., 30 minutes before testing, von Frey
Description: (§1) Adult male Sprague-Dawley rats (250-300 g body weight, Charles River Laboratories, Portage, Mich.) were used. Animal handling and experimental protocols were approved by the Institutional Animal Care and Use Committee (IACUC) at Abbott Laboratories. For all surgical procedures, animals were maintained under isoflurane anesthesia (4-5% to induce, 1-3% to maintain), and the incision sites were sterilized using a 10% povidone-iodine solution prior to and after surgeries.
Rats were allowed to acclimate to the study room for 1 hour. They were then briefly restrained, and capsaicin was administered at 10 μg in 10 μL of vehicle (10% ethanol and 2-hydroxypropyl cyclodextrin) by intraplantar injection into the center of the right hind paw. Secondary mechanical hyperalgesia was measured at the heel away from the site of injection at 180 minutes following capsaicin (Joshi et al., 2006, Neuroscience 143, 587-596). Compounds were injected (i.p.) 30 minutes before testing (150 minutes post-capsaicin).
Tactile (mechanical) allodynia was measured using calibrated von Frey filaments (Stoelting, Wood Dale, Ill.) as described in Chaplan, S. R., F. W. Bach, J. M. Pogrel, J. M. Chung and T. L. Yaksh, 1994, Quantitative assessment of tactile allodynia in the rat paw, J. Neurosci. Methods, 53, 55. […]
Tactile allodynia was measured as described above.

[2] = tested on: CCI-induced mechanical allodynia; assay: Chronic constriction injury (CCI) model of neuropathic pain (Bennett model); type: in vivo, Sprague-Dawley rats; details: rat CCI, about 30 mg/kg i.p., 30 minutes or more before testing
Description: as §1
(§2) Tactile (mechanical) allodynia was measured using calibrated von Frey filaments (Stoelting, Wood Dale, Ill.) as described in Chaplan, S. R., F. W. Bach, J. M. Pogrel, J. M. Chung and T. L. Yaksh, 1994, Quantitative assessment of tactile allodynia in the rat paw, J. Neurosci. Methods, 53, 55. Rats were placed into inverted individual plastic containers (20×12.5×20 cm) on top of a suspended wire mesh grid, and acclimated to the test chambers for 20 minutes. The von Frey filaments were presented perpendicularly to the plantar surface of the selected hind paw, and then held in this position for approximately 8 seconds with enough force to cause a slight bend in the filament. Positive responses include an abrupt withdrawal of the hind paw from the stimulus, or flinching behavior immediately following removal of the stimulus.
A model of chronic constriction injury-induced (CCI) neuropathic pain was produced by following the method of Bennett and Xie (1988, Pain, 33, 87-107). The right common sciatic nerve was isolated at mid-thigh level, and loosely ligated by 4 chromic gut (5-0) ties separated by an interval of 1 mm. Sham rats can underwent the same procedure, but without sciatic nerve constriction. All animals can be left to recover for at least 2 weeks and no more than 5 weeks prior to testing of mechanical allodynia. Compounds were injected (i.p.) 30 minutes or more before testing.

[3] = tested on: SNL-induced tactile allodynia; assay: Spinal nerve ligation (SNL) model of neuropathic pain; type: in vivo, Sprague-Dawley rats; details: rat SNL, about 30 mg/kg i.p., 30 minutes or more before testing
Description: as §1
as §2, with “stimulus. […]” for “stimulus.”

[4] = molecular target: T1, KCNQ 2/3 channels (HEK293 cells stably expressing human KCNQ2 and KCNQ3 subunits) (Homo sapiens, UniProt O43525+O43526); assay: KCNQ2/3 channel activation, thallium flux FLIPR assay (BTC-AM dye); type: cell-based; details: for Emax: HEK293, maximum response relative to response of retigabine at 10 μM (set at 100%), read-out: Max. %; for EC50: HEK293 cells expressing human KCNQ2 and KCNQ3, FLIPR thallium flux
T1 construct: expressed in transfected cells; host or cells: HEK293
How it was run: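 HEK293 cells stably expressing human KCNQ2/KCNQ3 were loaded with BTC-AM and exposed to compound for 4 min in pH 7.3 gluconate buffer with ouabain. Thallium flux was triggered with 6 mM TlNO3 and 10 mM K2SO4 (stock additions) and fluorescence (ex 488, em 540 nm) recorded for 3 min. EC50 came from responses over baseline; maximal response is relative to 10 μM retigabine (100%).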

Compound | change in paw withdrawal latency versus vehicle [1] | change in paw withdrawal latency versus vehicle [2] | change in paw withdrawal latency versus vehicle [3] | Emax [4] [%] | EC50 [4] [nM]
CC(C)(C)CC(=O)Nc1nn2cccnc2c1-c1ccc(OC(F)(F)F)cc1 [Example 1, 3,3-dimethyl-N-(3-(4-(trifluoromethoxy)phenyl)pyrazolo[1,5-a]pyrimidin-2-yl)butanamide] | statistically significant change | statistically significant change | – | – | –
O=C(CCC1CCCC1)Nc1nn2cccnc2c1-c1ccc(Cl)cc1 [Example 7, N-[3-(4-chlorophenyl)pyrazolo[1,5-a]pyrimidin-2-yl]-3-cyclopentylpropanamide] | – | – | statistically significant change | 150 | 100 to 500
Cc1ccnc2c(-c3ccc(OC(F)(F)F)cc3)c(NC(=O)Cc3ccc(F)cc3)nn12 [Example 9, 2-(4-fluorophenyl)-N-{7-methyl-3-[4-(trifluoromethoxy)phenyl]pyrazolo[1,5-a]pyrimidin-2-yl}acetamide] | – | statistically significant change | statistically significant change | 119 | 500 to 1000
Cc1cnc2c(-c3ccc(F)c(C)c3)c(NC(=O)CCC3CCCCC3)nn2c1 [Example 35, 3-cyclohexyl-N-[3-(4-fluoro-3-methylphenyl)-6-methylpyrazolo[1,5-a]pyrimidin-2-yl]propanamide] | – | statistically significant change | – | 116 | < 100
CC(C)(C)CCC(=O)Nc1nn2cccnc2c1C(C)(C)C [Example 170, N-(3-tert-butylpyrazolo[1,5-a]pyrimidin-2-yl)-4,4-dimethylpentanamide] | – | – | – | 124 | 1000 to 10000
CC(C)(C)c1c(NC(=O)CCc2ccc(C(F)(F)F)cc2)nn2cccnc12 [Example 165, N-(3-tert-butylpyrazolo[1,5-a]pyrimidin-2-yl)-3-[4-(trifluoromethyl)phenyl]propanamide] | – | – | – | 178 | 100 to 500
CC(C)(C)CC(=O)Nc1nn2cccnc2c1/C=C/c1ccc(C(F)(F)F)cc1 [Example 147, 3,3-dimethyl-N-(3-{(E)-2-[4-(trifluoromethyl)phenyl]vinyl}pyrazolo[1,5-a]pyrimidin-2-yl)butanamide] | – | – | – | 65 | 1000 to 10000
CC(C)c1c(NC(=O)COC2CCCC2)nn2cccnc12 [Example 133, 2-(cyclopentyloxy)-N-(3-isopropylpyrazolo[1,5-a]pyrimidin-2-yl)acetamide] | – | – | – | 7 | > 10000
CC(C)(C)/C=C/c1c(NC(=O)Cc2ccc(F)cc2)nn2cccnc12 [Example 161, N-{3-[(1E)-3,3-dimethylbut-1-en-1-yl]pyrazolo[1,5-a]pyrimidin-2-yl}-2-(4-fluorophenyl)acetamide] | – | – | – | 107 | 100 to 500
Cc1cc(C)n2nc(NC(=O)CCC3CC3)c(-c3ccc(Cl)c(C)c3)c2n1 [Example 114, N-[3-(4-chloro-3-methylphenyl)-5,7-dimethylpyrazolo[1,5-a]pyrimidin-2-yl]-3-cyclopropylpropanamide] | – | – | – | 119 | 100 to 500
COc1cc(CC(=O)Nc2nn3cccnc3c2-c2ccc(Cl)cc2)cc(OC)c1 [Example 109, N-[3-(4-chlorophenyl)pyrazolo[1,5-a]pyrimidin-2-yl]-2-(3,5-dimethoxyphenyl)acetamide] | – | – | – | 8 | > 10000
Cc1ccn2nc(NC(=O)Cc3ccc(F)cc3)c(-c3ccc(OC(F)(F)F)cc3)c2n1 [Example 168, 2-(4-fluorophenyl)-N-{5-methyl-3-[4-(trifluoromethoxy)phenyl]pyrazolo[1,5-a]pyrimidin-2-yl}acetamide] | – | – | – | 78 | 100 to 500
Cc1ccc(-c2c(NC(=O)Cc3ccccc3)nn3cccnc23)cc1F [Example 19, N-[3-(3-fluoro-4-methylphenyl)pyrazolo[1,5-a]pyrimidin-2-yl]-2-phenylacetamide] | – | – | – | 77 | 1000 to 10000
Cc1cc(C)n2nc(NC(=O)CCc3ccccc3)c(-c3ccc(Cl)c(C)c3)c2n1 [Example 47, N-[3-(4-chloro-3-methylphenyl)-5,7-dimethylpyrazolo[1,5-a]pyrimidin-2-yl]-3-phenylpropanamide] | – | – | – | 125 | 100 to 500
O=C(CCC1CCCC1)Nc1nn2cccnc2c1-c1cccnc1 [Example 119, 3-cyclopentyl-N-[3-(pyridin-3-yl)pyrazolo[1,5-a]pyrimidin-2-yl]propanamide] | – | – | – | 52 | 1000 to 10000
Cc1ccnc2c(-c3cccc(C(F)(F)F)c3)c(NC(=O)Cc3ccc(F)cc3)nn12 [Example 67, 2-(4-fluorophenyl)-N-{7-methyl-3-[3-(trifluoromethyl)phenyl]pyrazolo[1,5-a]pyrimidin-2-yl}acetamide] | – | – | – | 117 | 100 to 500
CC(C)(C)c1c(NC(=O)C=C2CCCCC2)nn2cccnc12 [Example 163, N-(3-tert-butylpyrazolo[1,5-a]pyrimidin-2-yl)-2-cyclohexylideneacetamide] | – | – | – | 133 | 1000 to 10000
Cc1cc(C)n2nc(NC(=O)CC3CCCCC3)c(-c3cccc(Cl)c3)c2n1 [Example 52, N-[3-(3-chlorophenyl)-5,7-dimethylpyrazolo[1,5-a]pyrimidin-2-yl]-2-cyclohexylacetamide] | – | – | – | 156 | 100 to 500
